{
  "source": "patent US20240316012A1",
  "about": "“METHODS FOR TREATING LYMPHOMA” (Northwestern University, priority 2023, published 2024)",
  "tested_on": "AP-1 family transcription factors",
  "assay": "ATAC-seq transcription factor footprint analysis after inhibitor incubation",
  "type": "cell-based, mouse",
  "settings": "BMS-303141 5 μM, 3 hours in vitro vs DMSO",
  "protocol": "Preparation of mouse and human ATAC-seq libraries. Ex vivo: For mouse ATAC-seq, ITK-SYK^CD4-creERT2, or ITK-SYK^CD4-creERT2; Pdcd1^−/− mice received a single dose of 2 mg tamoxifen. Five days after injection, single-cell suspensions were generated from the spleens and 50,000 eGFP^+ FACS-sorted cells were used for the transposase reaction. For human ATAC-seq, 50,000 malignant cells from CTCL patients with and without PDCD1 mutation were sorted by FACS as described above. The transposase reaction was performed as previously described^81. […] The reaction was monitored after 4 cycles with qPCR using 5 μl PCR reaction mixture and the same primers in 15 μl total volume (KK4617, Roche). Cycles were added as calculated, then the amplified samples were purified, and size selected using SpeedBeads (GE65152105050250, Sigma) in 22% PEG. […]\nATAC-seq analysis. […] Next, reads were aligned to the mm9 genome using Bowtie2 (v2.4.0)^71. […] To filter properly mapped reads, Applicants used Samtools with the following options: exclude multi-mapped reads (MAPQ<30) and reads with flag 1796 or 1804. Next, Samtools with option “-f 2” was used to filter properly paired reads. […] Next, Applicants filtered for nucleosome-free reads (0-100 bp) as previously described^44. […]",
  "data": [
    {"molecule": "COc1ccc(-c2ccccc2)cc1NS(=O)(=O)c1cc(Cl)cc(Cl)c1O", "note": "[BMS-303141]", "values": [
      {"measurement": "AP-1 footprints in Pdcd1 deleted cells in comparison to cells with intact PD-1 pathway", "value": "de-enriched"}
    ]}
  ]
}
